One assay has as its system Kibdelosporangium aridum. The assay is described as follows: Susceptibility of K. aridum to antibiotics, disk diffusion. It is filed as cell-based. The following applies: for Susceptibility of K. aridum: 28° C., one week. The method, then:
Susceptibility of K. aridum to antibiotics was examined by placing BBL susceptibility disks on nutrient agar plates seeded with K. aridum as an overlay. Diameters of the zones of inhibition were measured after incubation for one week at 28° C.
Susceptibility to Antibiotics. […] Chlortetracycline ([…]) produced 18 mm zones of inhibition; tetracycline (5 μg) 11-12 mm zones; rifampin (5 μg) 11-15 mm zones; novobiocin (5 μg) 27-28 mm zones. All zones of inhibition contained at least a few resistant colonies.
For orientation: Agar diffusion results depend on both activity and mobility in agar.

The subject of assay [1] is rumen fluid from dairy cows. In words: Rumen in vitro experiment with dairy cow rumen fluid. To be noted: about 23 hours. The method, then:
A similar experiment was carried out using rumen fluid from dairy cows fed a typical dairy cow diet of two parts corn silage and three parts dairy concentrate. Specifically, strained rumen fluid (10 ml) was obtained, from an animal fed two hours earlier, via cannula and was mixed with 10 ml of a nutrient broth comprising a 2:3 mix of corn silage and dairy concentrate. After adding a selected growth promotant, the mixture was incubated at 39° C. for about 23 hours, with oscillation.

The next assay has as its system rumen inoculum. The assay is described as follows: Rumen in vitro model. Further details: species or system steer.

Where a SMILES comes first, the peptide text is derived from it. Bridges are numbered along the chain shown (N, C = ends). [ ]: non-standard residue; d: D form. The star is where a group is joined. Ileψ(thiazoline)Cys = CC[C@H](C)[C@H](N)C1=N[C@H](C(=O)*)CS1; dOrn = NCCC[C@@H](N)C(=O)O

Regarding `CN(C)[C@@H]1C(O)=C(C(N)=O)C(=O)[C@@]2(O)C(O)=C3C(=O)c4c(O)ccc(Cl)c4[C@@](C)(O)[C@H]3C[C@@H]12` [Chlortetracycline], the Zone of inhibition with Kibdelosporangium aridum (disk 5 g (so in the source), zones contained a few resistant colonies) came out at 18 mm.
Turning to `CC[C@@]1([C@H]2O[C@H]([C@H]3O[C@@](O)(CO)[C@H](C)C[C@@H]3C)C[C@H]2C)CC[C@H]([C@@]2(C)CC[C@]3(C[C@H](O)[C@@H](C)[C@@H]([C@H](C)[C@H](OC)[C@@H](C)C(=O)O)O3)O2)O1` [Monensin Sodium], in assay [1] (0.5 ppm), the “% PR” value turned out to be 117% OF CONTROL, the ACE is 100% OF CONTROL, the AMO stood at 115% OF CONTROL and the BUT turned out to be 94% OF CONTROL. Besides, in assay [1] (0.5 ppm), the DLAC was 0% OF CONTROL, the ETOH worked out at 0% OF CONTROL, the GLU amounted to 0% OF CONTROL and the IBU stood at 104% OF CONTROL. In assay [1] (0.5 ppm), the IVA stood at 114% OF CONTROL, the LLAC turned out to be 0% OF CONTROL, the LYS was 96% OF CONTROL and the NH--N is given as 137% OF CONTROL. For the same compound, in assay [1] (0.5 ppm), the PRO was determined as 122% OF CONTROL, the TOTAL was determined as 104% OF CONTROL and the VAL is 105% OF CONTROL. For the same compound, in assay [1] (5 ppm), the “% PR” value is given as 146% OF CONTROL, the ACE worked out at 102% OF CONTROL, the AMO is given as 238% OF CONTROL and the BUT was determined as 71% OF CONTROL. In assay [1] (5 ppm), this compound came in with a DLAC of 0% OF CONTROL, an ETOH of 0% OF CONTROL, a GLU of 0% OF CONTROL and an IBU of 91% OF CONTROL. Besides, in assay [1] (5 ppm), the IVA is 75% OF CONTROL, the LLAC was determined as 0% OF CONTROL, the LYS was 95% OF CONTROL and the NH--N came out at 105% OF CONTROL. Also, in assay [1] (5 ppm), the PRO came to 145% OF CONTROL, the TOTAL worked out at 99% OF CONTROL and the VAL worked out at 81% OF CONTROL. Besides, in assay [1] (50 ppm), the “% PR” value was found to be 185% OF CONTROL, the ACE is 76% OF CONTROL, the AMO was 274% OF CONTROL and the BUT is reported as 59% OF CONTROL. In assay [1] (50 ppm), this compound had a DLAC of 0% OF CONTROL, an ETOH of 0% OF CONTROL, a GLU of 0% OF CONTROL and an IBU of 55% OF CONTROL. Besides, in assay [1] (50 ppm), the IVA is listed as 45% OF CONTROL, the LLAC was determined as 0% OF CONTROL, the LYS stood at 120% OF CONTROL and the NH--N is recorded as 84% OF CONTROL. In assay [1] (50 ppm), the PRO worked out at 159% OF CONTROL, the TOTAL stood at 86% OF CONTROL and the VAL is listed as 58% OF CONTROL. For the same compound, in the assay with rumen inoculum (0.5 ppm), the “% PR” value amounted to 119% OF CONTROL, the ACE is 78% OF CONTROL, the AMO is 0% OF CONTROL and the BUT worked out at 100% OF CONTROL. In addition, in the assay with rumen inoculum (0.5 ppm), the DLAC was found to be 0% OF CONTROL, the ETOH is 0% OF CONTROL, the IBU stood at 138% OF CONTROL and the IVA stood at 219% OF CONTROL. For the same compound, in the assay with rumen inoculum (0.5 ppm), the LLAC is reported as 0% OF CONTROL, the PRO is 112% OF CONTROL, the TOTAL is on record as 94% OF CONTROL and the UREA was 0% OF CONTROL. In the assay on rumen inoculum (0.5 ppm), this compound came in with a VAL of 101% OF CONTROL and a VFA of 94 % Control. Further, in the assay with rumen inoculum (5 ppm), the “% PR” value turned out to be 149% OF CONTROL, the ACE came out at 74% OF CONTROL, the AMO was determined as 0% OF CONTROL and the BUT stood at 93% OF CONTROL. In the assay with rumen inoculum (5 ppm), this compound gave a DLAC of 0% OF CONTROL, an ETOH of 0% OF CONTROL, an IVA of 265% OF CONTROL and an LLAC of 178% OF CONTROL. In the assay with rumen inoculum (5 ppm), this compound displayed a PRO of 154% OF CONTROL, a TOTAL of 104% OF CONTROL, a UREA of 0% OF CONTROL and a VAL of 99% OF CONTROL. The VFA with rumen inoculum (5 ppm) is 104 % Control. Also, in the assay with rumen inoculum (50 ppm), the “% PR” value came out at 156% OF CONTROL, the ACE is on record as 73% OF CONTROL, the AMO was 0% OF CONTROL and the BUT amounted to 98% OF CONTROL. In the assay on rumen inoculum (50 ppm), this compound had a DLAC of 0% OF CONTROL, an ETOH of 0% OF CONTROL, an IBU of 196% OF CONTROL and an IVA of 278% OF CONTROL. In the assay on rumen inoculum (50 ppm), the LLAC came to 999% OF CONTROL, the PRO is 171% OF CONTROL, the UREA was found to be 0% OF CONTROL and the VAL worked out at 107% OF CONTROL.
Turning to `CC[C@H](C)[C@H](N)C1=N[C@H](C(=O)N[C@@H](CC(C)C)C(=O)N[C@H](CCC(=O)O)C(=O)N[C@H](C(=O)N[C@H]2CCCCNC(=O)[C@H](CC(N)=O)NC(=O)[C@@H](CC(=O)O)NC(=O)[C@H](Cc3cnc[nH]3)NC(=O)[C@@H](Cc3ccccc3)NC(=O)[C@H]([C@@H](C)CC)NC(=O)[C@@H](CCCN)NC2=O)[C@@H](C)CC)CS1` [bacitracin] ({Ileψ(thiazoline)Cys}-L[dE]IK[dOrn]I[dF]H[dD]N; lactam 4-C), the “Susceptibility of K. aridum” value with Kibdelosporangium aridum (disk 2 units) is “resistant”.
Regarding `CC(=O)OCC1=C(C(=O)O)N2C(=O)[C@@H](NC(=O)Cc3cccs3)[C@H]2SC1` [cephalothin], the “Susceptibility of K. aridum” value in the assay with Kibdelosporangium aridum (disk 30 μg) is “resistant”.
For the compound `CCC[C@@H]1C[C@@H](C(=O)N[C@@H]([C@H]2O[C@H](SC)[C@H](O)[C@@H](O)[C@H]2O)[C@H](C)Cl)N(C)C1` [clindamycin], the “Susceptibility of K. aridum” value with Kibdelosporangium aridum (disk 2 μg) is “resistant”.
As for `CCC[C@@H]1C[C@@H](C(=O)N[C@@H]([C@H]2O[C@H](SC)[C@H](O)[C@@H](O)[C@H]2O)[C@@H](C)O)N(C)C1` [lincomycin], the “Susceptibility of K. aridum” value in the assay with Kibdelosporangium aridum (disk 2 μg) is “resistant”.
Regarding `CC1(C)S[C@@H]2[C@H](NC(=O)Cc3ccccc3)C(=O)N2[C@H]1C(=O)O` [penicillin], the “Susceptibility of K. aridum” value in the assay on Kibdelosporangium aridum (disk 10 units) was “resistant”.
With `[H]/N=C(/N)N[C@H]1[C@H](O)[C@@H](O)[C@H](O[C@@H]2O[C@@H](C)[C@](O)(C=O)[C@H]2O[C@@H]2O[C@@H](CO)[C@H](O)[C@@H](O)[C@@H]2NC)[C@@H](N/C(N)=N\[H])[C@@H]1O` [streptomycin], the “Susceptibility of K. aridum” value with Kibdelosporangium aridum (disk 10 μg) was “resistant”.
On the same count and under the same terms, next, `NC[C@H]1O[C@H](O[C@H]2[C@H](O)[C@@H](O[C@H]3O[C@H](CO)[C@@H](O)[C@H](N)[C@H]3O)[C@H](N)C[C@@H]2N)[C@H](N)C[C@@H]1O` [tobramycin]: “resistant”; gentamicin: “resistant”.

For the origin of these results see patent US4797280A, “Antibiotics produced by Kibdelosporangium aridum Shearer gen. nov., sp. nov. ATCC 39323” (SmithKline Beckman Corporation, priority 1986, dated 1989).
